Data: patent US7049317B2, “CCR-3 receptor antagonists” (Syntex (U.S.A.) LLC, priority 2001, dated 2006)

Experiments:
[1] = target: T1, CCR-3 receptor (Homo sapiens, UniProt P51677); test: CCR-3 Receptor Binding Assay, inhibition of 125I eotaxin binding to CCR-3 L1.2 transfectant cells; conditions: 1 hour at room temperature
T1 construct: expressed in transfected cells; host or cells: L1.2 cells (murine pre-B lymphoma line)
T1 sequence (P51677 1-355): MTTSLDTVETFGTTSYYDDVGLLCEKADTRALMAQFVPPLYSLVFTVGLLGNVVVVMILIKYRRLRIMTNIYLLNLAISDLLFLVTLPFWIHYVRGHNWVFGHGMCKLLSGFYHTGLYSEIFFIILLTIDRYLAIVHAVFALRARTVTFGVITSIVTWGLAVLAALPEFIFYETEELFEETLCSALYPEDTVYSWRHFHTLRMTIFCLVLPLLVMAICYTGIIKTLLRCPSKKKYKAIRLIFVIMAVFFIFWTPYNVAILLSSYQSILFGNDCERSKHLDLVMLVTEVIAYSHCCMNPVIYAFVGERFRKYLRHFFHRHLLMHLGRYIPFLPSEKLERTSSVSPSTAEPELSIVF
Protocol: The CCR-3 antagonistic activity of the compounds of the invention was determined by their ability to inhibit the binding of ^125I eotaxin to CCR-3 L1.2 transfectant cells (see Ponath, P. D. et al., J. Exp. Med., Vol. 183, 2437–2448, (1996)).
The assay was performed in Costar 96-well polypropylene round bottom plates. Test compounds were dissolved in DMSO and then diluted with binding buffer (50 mM HEPES, 1 mM CaCl2, 5 mM MgCl2, 0.5% bovine serum albumin (BSA), 0.02% sodium azide, pH 7.24) such that the final DMSO concentration was 2%. 25 μl of the test solution or only buffer with DMSO (control samples) was added to each well, followed by the addition of 25 μl of ^125I-eotaxin ([…]) (NEX314, New England Nuclear, Boston, Mass.) and 1.5×10^5 of the CCR-3 L1.2 transfected cells in 25 μl binding buffer. The final reaction volume was 75 μl.
After incubating the reaction mixture for 1 hour at room temperature, the reaction was terminated by filtering the reaction mixture through polyethylenimine treated Packard Unifilter GF/C filter plate (Packard, Chicago, Ill.). The filters were washed four times with ice cold wash buffer containing 10 mm HEPES and 0.5M sodium chloride (pH 7.2) and dried at 65° C. for approximately 10 minutes. 25 μl/well of Microscint-20® scintillation fluid (Packard) was added and the radioactivity retained on the filters was determined by using the Packard TopCount®

melting point [°C] | IC50 [1] [µM] | SMILES
91.3 to 96 |  | COc1cc(NC(=O)N[C@@H]2CCC[C@H]2NCCCc2ccc(Cl)cc2)cc(OC)c1OC.Cl (racemic)
179 to 179.3 |  | CN(CCc1ccc(Cl)cc1)[C@@H]1CCC[C@H]1NC(=O)c1ccc(S(C)(=O)=O)cc1.Cl (racemic)
221.8 to 222.7 |  | CS(=O)(=O)c1ccc(C(=O)N[C@@H]2CCC[C@H]2NCCc2ccc(Cl)cc2)cc1.Cl (racemic)
109 to 113 |  | CN(CCCc1ccc(Cl)cc1)[C@@H]1CCC[C@H]1NC(=O)c1ccc(S(C)(=O)=O)cc1.Cl (racemic)
95.3 to 111.3 | 18.2 | COc1ccc(-c2cnc(SCC(=O)N[C@@H]3CCC[C@H]3NCCCc3ccc(Cl)cc3)nc2)cc1OC.Cl (racemic) [Compound 1, (±)-trans-N-{2-[3-(4-Chlorophenyl)propylamino]cyclopentyl}-2-[5-(3,4-dimethoxyphenyl)pyrimidin-2-ylsulfanyl]acetamide hydrochloride]
192.3 to 196.8 | 6.8 | CS(=O)(=O)c1ccc(C(=O)N[C@@H]2CCC[C@H]2NCCCc2ccc(Cl)cc2)cc1.Cl (racemic) [Compound 2, (±)-trans-N-{2-[3-(4-Chlorophenyl)propylamino]cyclopentyl}-4-methanesulfonylbenzamide hydrochloride]
181.3 to 185.6 |  | COc1ccc(-c2cnc(SCC(=O)N[C@@H]3CCC[C@H]3NCCc3ccc(Cl)cc3)nc2)cc1OC.Cl (racemic)

The remaining lines, values behind:

SMILES | melting point [°C] | IC50 [1] [µM]
COc1cc(NC(=O)N[C@@H]2CCC[C@H]2N(C)CCCc2ccc(Cl)cc2)cc(OC)c1OC.Cl (racemic) | 75 to 82 | 
COc1ccc(-c2cnc(SCC(=O)N[C@@H]3CCC[C@H]3N(C)CCCc3ccc(Cl)cc3)nc2)cc1OC.Cl (racemic) [Compound 9, (±)-trans-N-(2-{[3-(4-Chlorophenyl)propyl]methylamino}-cyclopentyl)-2-[5-(3,4-dimethoxyphenyl)pyrimidin-2-ylsulfanyl]acetamide hydrochloride] | 91.5 to 98.5 | 5.6
COc1ccc(-c2cnc(SCC(=O)N[C@@H]3CCC[C@H]3N(C)CCc3ccc(Cl)cc3)nc2)cc1OC.Cl (racemic) | 123.7 to 125.3 | 
COc1cc(NC(=O)N[C@@H]2CCC[C@H]2N(C)CCc2ccc(Cl)cc2)cc(OC)c1OC.Cl (racemic) [Compound 6, (±)-trans-1-(2-{[2-(4-Chlorophenyl)ethyl]methylamino}cyclopentyl)-3-(3,4,5-trimethoxyphenyl)urea hydrochloride] | 97 to 105 | 5.4
COc1cc(NC(=O)N[C@@H]2CCC[C@H]2NCCc2ccc(Cl)cc2)cc(OC)c1OC.Cl (racemic) | 97 to 101.5 | 
